Results from US20100152219A1, “PYRAZOLE DERIVATIVES AS INHIBITORS OF RECEPTOR TYROSINE KINASES” (ASTRAZENECA R&D, priority 2003, published 2010).

molecular target: T1, human TrkB kinase (Homo sapiens, UniProt Q16620); experiment: TrkB Assay Format (HTRF kinase assay); assay type: biochemical; settings: Trk inhibitory activity in the in-vitro TrkB HTRF assay
T1 construct: The intracellular domain of a HIS-tagged human TrkB kinase; His tag; made in house; host or cells: Sf9 insect cells
Method: TrkB kinase activity is being measured against its ability to phosphorylate synthetic tyrosine residues within a generic polypeptide substrate using homogenous time-resolved fluorescence (HTRF) technology. The intracellular domain of a HIS-tagged human TrkB kinase was expressed in SF9 cells and purified using standard nickel column chromatography. After the kinase is incubated with a biotinylated substrate and adenosine triphosphate (ATP) for 50 minutes at room temperature, the kinase reaction is stopped by the addition of 60 mM ethylenediaminetetraacetic acid (EDTA). The reaction is performed in 384 well microtitre plates and reaction products are detected with the addition of strepavidin-linked and phosphotyrosine-specific antibodies using the Tecan Ultra Evolution Microplate Fluometer after an additional 3-hour incubation at room temperature.

T1 sequence (Q16620 455-822 limits assumed): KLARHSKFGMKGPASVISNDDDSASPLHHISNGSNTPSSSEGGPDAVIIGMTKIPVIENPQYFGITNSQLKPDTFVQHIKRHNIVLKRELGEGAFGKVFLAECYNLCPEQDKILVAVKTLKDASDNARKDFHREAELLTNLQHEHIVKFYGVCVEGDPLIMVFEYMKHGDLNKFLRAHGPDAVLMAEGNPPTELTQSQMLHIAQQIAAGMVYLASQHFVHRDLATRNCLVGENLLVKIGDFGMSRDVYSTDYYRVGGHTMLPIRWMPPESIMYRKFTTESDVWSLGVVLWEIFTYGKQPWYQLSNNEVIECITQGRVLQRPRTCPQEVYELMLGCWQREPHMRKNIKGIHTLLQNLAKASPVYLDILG

Row | SMILES | IC50
1 | C[C@H](Nc1nccc(Nc2cc(C3CC3)n[nH]2)n1)c1ccc(F)cc1 [Example 42, N^4-(3-Cyclopropyl-1H-pyrazol-5-yl)-N^2-[(1S)-1-(4-fluorophenyl)ethyl]pyrimidine-2,4-diamine] | 67 nM
2 | OCC[C@H](Nc1nc(Nc2cc(C3CC3)[nH]n2)c2sccc2n1)c1ccc(F)cc1 [Example 64, (3S)-3-({4-[(5-Cyclopropyl-1H-pyrazol-3-yl)amino]thieno[3,2-d]pyrimidin-2-yl}amino)-3-(4-fluorophenyl)propan-1-ol] | 59 nM
3 | COc1ccc2nc(N[C@@H](CO)c3ccc(F)cc3)nc(Nc3cc(C4CC4)[nH]n3)c2c1 [Example 80, (2R)-2-({4-[(5-Cyclopropyl-1H-pyrazol-3-yl)amino]-6-methoxyquinazolin-2-yl}amino)-2-(4-fluorophenyl)ethanol] | 87 nM
